Measurements published in patent US8507538B2, “Selective heterocyclic sphingosine 1 phosphate receptor modulators” (Receptos, Inc., priority 2009, dated 2013).

Each molecule was assayed on CD4 or CD8 positive T cells (assay: Lymphopenia in rats). Conditions: rat, 24 h after a 0.2 mg/kg single dose.
Assay type: in vivo
Protocol: In rats: Female rats (Simonsen Laboratories, Gilroy Calif.) were housed in an ALAAC accredited facility and the research was approved by the facilities Institutional Animal Care and Use Committee (IACUC). The animals were acclimated to the laboratory for at least 5 days prior to initiation of experiments. Rats (n=3/compound/time-point) were dosed by oral gavage with 1 mg/kg compound formulated in a vehicle consisting of 5% DMSO/5% Tween 20 and 90% 0.1N HCL. Control rats were dosed PO with the vehicle. Whole blood was collected from isoflurane anesthetized rats via the retro-orbital sinus and terminal samples were collected by cardiac puncture into EDTA. Whole blood was incubated with mouse anti-rat CD32 (BD #550271), PE-mouse anti-rat CD45R/B220 (BD #554881), PECy5-mouse anti-rat CD4 (BD #554839), and APC-mouse anti-rat CD8a (eBioscience #17-0084) for 30 minutes on ice. Red blood cells were lysed using BD Pharm. Lyse Lysing buffer (#555899) and white blood cells were analyzed with a BD FACSArray. Lymphopenia was expressed as the % of white blood cells that were CD4 or CD8 positive T cells. The overall lymphopenia response over 24 h was estimated by calculating the area under the effect curve (AUEC) using the linear trapezoidal rule. In some experiments, total lymphocyte counts were determined using a standard impediance based veterinary hematology analyzer (IDEXX Preclinical Research Services, Sacramento, Calif.).
The percentage of lymphopenia at 24 h after a 0.2 mg/kg single dose regiment is reported. […] N/A is not available.

Molecule | % Lymphopenia after 24 h (0.2 mg/kg) [%]
(R)-N-((R)-4-(5-(3-cyano-4-isopropoxyphenyl)-1,3,4-thiadiazol-2-yl)-2,3-dihydro-1H-inden-1-yl)-3-(dimethylamino)pyrrolidine-1-carboxamide [Compound 56] | 52

What follows are molecules tested against S1P1/EDG1 (Homo sapiens, UniProt P21453) (assay: S1P1 CRE-bla CHOK1 reporter assay (inhibition of Forskolin induced cAMP)). Conditions: agonist activity range, Table 2; read-out: S1P1 ACTIVITY.
S1P1/EDG1, sequence (P21453 whole entry): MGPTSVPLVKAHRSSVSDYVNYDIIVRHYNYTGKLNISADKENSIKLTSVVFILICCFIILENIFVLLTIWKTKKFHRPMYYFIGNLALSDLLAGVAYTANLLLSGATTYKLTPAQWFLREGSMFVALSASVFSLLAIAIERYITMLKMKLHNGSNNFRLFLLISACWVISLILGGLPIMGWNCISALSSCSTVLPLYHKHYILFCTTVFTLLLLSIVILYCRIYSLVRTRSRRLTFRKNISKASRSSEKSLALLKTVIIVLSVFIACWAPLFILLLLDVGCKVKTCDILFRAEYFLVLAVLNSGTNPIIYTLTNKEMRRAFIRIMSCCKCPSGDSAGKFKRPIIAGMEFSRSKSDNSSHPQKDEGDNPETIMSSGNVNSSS
Assay type: cell-based
Summary of the method: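 Stable CRE-bla CHO-K1 clone expressing human S1P1, serum-starved (0.5% stripped serum) 18 h, then treated with compound (10-point curve) plus 2 μM forskolin for 4 h at 37 °C. β-lactamase FRET ratio (458/522 nm) read after 2 h substrate loading; EC50 for inhibition of forskolin-induced cAMP by non-linear regression.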

Molecule | EC50 [nM]
COC(=O)CC1CCN(CCS(=O)(=O)N[C@H]2CCc3c(-c4cnc(-c5ccc(OC(C)C)c(C#N)c5)s4)cccc32)CC1 [Compound 147] | 0.5 to 5
COC(=O)CC1CCN(C(=O)N[C@H]2CCc3c(-c4cnc(-c5ccc(OC(C)C)c(C#N)c5)s4)cccc32)CC1 [Compound 204] | 0.5 to 5
CC(C)Oc1ccc(-c2ncc(-c3cccc4c3CCC4NS(C)(=O)=O)s2)cc1C#N (stereo in doubt) [Compound 111, (R)-N-(4-(2-(3-cyano-4-isopropoxyphenyl)thiazol-5-yl)-2,3-dihydro-1H-inden-1-yl)methanesulfonamide] | 0.05 to 0.5
COC(=O)CS(=O)(=O)N[C@H]1CCc2c(-c3cnc(-c4ccc(OC(C)C)c(C#N)c4)s3)cccc21 [Compound 155, (S)-methyl 2-(N-(4-(2-(3-cyano-4-isopropoxyphenyl)thiazol-5-yl)-2,3-dihydro-1H-inden-1-yl)sulfamoyl)acetate] | 0.5 to 5
CC(C)Oc1ccc(-c2ncc(-c3cccc4c3CC[C@@H]4NC(=O)N3CCN(C)CC3)s2)cc1C#N [Compound 191] | > 5
CC(C)Oc1ccc(-c2ncc(-c3cccc4c3CCC4N3CC[C@@H](N)C3)s2)cc1C#N (stereo partly drawn) [Compound 212] | > 5
CC(C)Oc1ccc(-c2nnc(-c3cccc4c3CCC4NCCS(C)(=O)=O)s2)cc1C#N (stereo in doubt) [Compound 32, (R)-2-isopropoxy-5-(5-(1-((2-(methylsulfonyl)ethyl)amino)-2,3-dihydro-1H-inden-4-yl)-1,3,4-thiadiazol-2-yl)benzonitrile] | < 0.05
CC(C)Oc1ccc(-c2ncc(-c3cccc4c3CC[C@@H]4NS(=O)(=O)CCN3CCC[C@H](O)C3)s2)cc1C#N [Compound 142] | 0.5 to 5
CC(C)Oc1ccc(-c2cnc(-c3cccc4c3CCC4O)s2)cc1C#N (stereo not drawn) [Compound 222, 5-(2-(1-hydroxy-2,3-dihydro-1H-inden-4-yl)thiazol-5-yl)-2-isopropoxy-benzonitrile] | > 5
CC(C)Oc1ccc(-c2ncc(-c3cccc4c3CC[C@@H]4NS(N)(=O)=O)s2)cc1C#N [Compound 167, (S)-N-(4-(2-(3-cyano-4-isopropoxyphenyl)thiazol-5-yl)-2,3-dihydro-1H -inden-1-yl)sulfamide] | 0.05 to 0.5
CC(C)Oc1ccc(-c2nnc(-c3cccc4c3CC[C@@H]4NC(=O)N3CCC[C@H](O)C3)s2)cc1C#N [Compound 60] | 0.5 to 5
